Ten compounds from ChEMBL document CHEMBL1201862, “PubChem BioAssay data set” (2004) can be followed below.

Test systems include SNB-75; UACC-62; CCRF-CEM; BT-549; HL-60; SK-OV-3; OVCAR-4; OVCAR-5; MDA-MB-231; UACC-257; ACHN; MOLT-4; HOP-62; RXF 393; HCC 2998; OVCAR-3; NCI/ADR-RES; SNB-19; HCT-15.
Assay in all cases: growth of human tumour cells (NCI), 48 h

SMILES strings stand for the structures.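 Test compounds were applied to cells in 96-well plates for 48 hours at 5 doses. GI50: concentration for 50% inhibition of growth.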 Activity calls are given as the source filed them. Cut-off read from the data, not from the text of the source: active = GI50 up to about 1.1 µM and inactive = higher.

In the case of `N#CCCN(CCCN(C(=O)Nc1ccccc1)c1ccccc1)C(=O)Nc1ccccc1`, the GI50 with SNB-75 is 44.8 µM (inactive); in the assay on UACC-62, > 100 µM (inactive); with CCRF-CEM, 33.7 µM (inactive); in the assay with BT-549, > 100 µM (inactive); in the assay with HL-60 it was 27.2 µM (inactive); with SK-OV-3, > 100 µM (inactive). Moreover, the GI50 in the assay on OVCAR-4 is > 100 µM (inactive); in the assay on OVCAR-5, > 100 µM (inactive); in the assay on MDA-MB-231, > 100 µM (inactive); with UACC-257, > 100 µM (inactive); in the assay with ACHN, > 100 µM (inactive); with MOLT-4, 32.6 µM (inactive). Further, the GI50 in the assay with HOP-62 was > 100 µM (inactive); in the assay with RXF 393 it was 46.5 µM (inactive); in the assay with HCC 2998 it was > 100 µM (inactive); in the assay on OVCAR-3 it was > 100 µM (inactive); with NCI/ADR-RES, > 100 µM (inactive); in the assay with SNB-19, 64.3 µM (inactive). Moreover, in the assay on HCT-15, the GI50 was over 100 µM.

In the case of `COc1ccc(CNc2nc3cc(C(F)(F)F)ccc3nc2-c2ccccc2)cc1OC`, the GI50 in the assay with SNB-75 is 37.3 µM (inactive); with UACC-62, 50.6 µM (inactive); in the assay with CCRF-CEM, 22.6 µM (inactive); with BT-549 it was 47.5 µM (inactive); with HL-60, 34 µM (inactive); with SK-OV-3, > 100 µM (inactive). Besides, the GI50 in the assay on OVCAR-4 is 43.1 µM (inactive); with OVCAR-5, 71.1 µM (inactive); in the assay on MDA-MB-231 it was 53.8 µM (inactive); with UACC-257, 28.4 µM (inactive); in the assay on ACHN, 23.8 µM (inactive); in the assay on MOLT-4, 25.5 µM (inactive). For the same compound, the GI50 is 23.9 µM (inactive) in the assay with HOP-62; 22.8 µM (inactive) in the assay on RXF 393; 22.6 µM (inactive) with HCC 2998; 96.8 µM (inactive) in the assay with OVCAR-3; 54.5 µM (inactive) in the assay with NCI/ADR-RES; > 100 µM (inactive) in the assay with SNB-19. This compound had a GI50 in the assay on HCT-15 of 28.2 µM.

Regarding `CC[C@@]1(O)C(=O)OCc2c1cc1n(c2=O)Cc2c-1nc1ccccc1c2/C=N\NC(=O)C(N)CS` (stereo not given in full), the GI50 is 0.573 µM (active) with SNB-75; 0.0614 µM (active) in the assay with UACC-62; 0.0446 µM (active) in the assay with CCRF-CEM; 10.8 µM (inactive) with BT-549; 0.346 µM (active) in the assay on HL-60; 1.91 µM (inactive) in the assay with SK-OV-3. The GI50 in the assay on OVCAR-4 is 53.2 µM (inactive); with OVCAR-5, 17.3 µM (inactive); in the assay with MDA-MB-231, 78.9 µM (inactive); in the assay on UACC-257 it was 7.26 µM (inactive); with ACHN it was 0.262 µM (active); in the assay with MOLT-4 it was 0.0794 µM (active). Moreover, the GI50 is 0.295 µM (active) in the assay on HOP-62; 1.8 µM (inactive) in the assay on RXF 393; 9.46 µM (inactive) with HCC 2998; 13.2 µM (inactive) in the assay on OVCAR-3; 1.71 µM (inactive) in the assay on NCI/ADR-RES; 0.571 µM (active) in the assay on SNB-19. The same compound had a GI50 in the assay on HCT-15 of 3.83 µM.

On to `CCOC(=O)/C=C(\C(=O)OCC)n1ccc(=O)n(Cc2cn(CCCCOC(C)=O)nn2)c1=O`, for which the GI50 in the assay with SNB-75 is 19.5 µM (inactive); in the assay on UACC-62 it was 16.1 µM (inactive); in the assay with CCRF-CEM, 1.28 µM (inactive); in the assay on BT-549, 10.4 µM (inactive); with HL-60, 0.26 µM (active); in the assay with SK-OV-3 it was 32.4 µM (inactive). Also, the GI50 with OVCAR-4 was 19.4 µM (inactive); in the assay with OVCAR-5, 14.3 µM (inactive); in the assay with MDA-MB-231, 18.6 µM (inactive); in the assay with UACC-257 it was 17.4 µM (inactive); in the assay on ACHN, 5.33 µM (inactive); with MOLT-4, 2.4 µM (inactive). The GI50 with HOP-62 was 20.7 µM (inactive); in the assay on RXF 393, 12 µM (inactive); in the assay with HCC 2998, 21.6 µM (inactive); in the assay with OVCAR-3 it was 12.7 µM (inactive); in the assay with NCI/ADR-RES, 19.9 µM (inactive); with SNB-19, > 39.7 µM (inactive). In the assay with HCT-15, this compound gave a GI50 of 7.01 µM.

Turning to `O=C1CSC2=NC3=C(COC/C3=C\c3ccc(F)cc3)C(c3ccc(F)cc3)N12` (stereo not given), the GI50 in the assay with SNB-75 was > 100 µM (inactive); in the assay with UACC-62, > 100 µM (inactive); in the assay with CCRF-CEM it was 25.8 µM (inactive); in the assay on BT-549, > 100 µM (inactive); in the assay on HL-60, 12.6 µM (inactive); in the assay with SK-OV-3, > 100 µM (inactive). Also, the GI50 with OVCAR-4 was 50.9 µM (inactive); in the assay with OVCAR-5 it was > 100 µM (inactive); in the assay with MDA-MB-231 it was > 100 µM (inactive); in the assay with UACC-257, > 100 µM (inactive); in the assay with ACHN it was 71 µM (inactive); in the assay with MOLT-4, 20.6 µM (inactive). Further, the GI50 with HOP-62 was > 100 µM (inactive); in the assay with RXF 393 it was 59.8 µM (inactive); with HCC 2998 it was 48.6 µM (inactive); with OVCAR-3, 49.7 µM (inactive); with NCI/ADR-RES, 58.9 µM (inactive); in the assay on SNB-19 it was 94.2 µM (inactive). The compound also had a GI50 in the assay on HCT-15 of 37.2 µM.

Consider `COC(=O)C(Cc1ccccc1)NP(=O)(O)OCC1OC(n2cc(F)c(=O)[nH]c2=O)CC1O` (stereo not given), for which the GI50 was > 31.9 µM (inactive) in the assay on SNB-75; 7 µM (inactive) in the assay on UACC-62; 1.1 µM (active) in the assay with CCRF-CEM; > 100 µM (inactive) in the assay on BT-549; 10.5 µM (inactive) in the assay on HL-60; 61.4 µM (inactive) in the assay with SK-OV-3. Also, the GI50 in the assay with OVCAR-4 is > 100 µM (inactive); with OVCAR-5, > 100 µM (inactive); with MDA-MB-231 it was > 100 µM (inactive); in the assay with UACC-257, > 56 µM (inactive); in the assay with ACHN, 1.44 µM (inactive); with MOLT-4, 4.78 µM (inactive). Further, the GI50 in the assay on HOP-62 is 2.58 µM (inactive); with RXF 393, > 100 µM (inactive); in the assay on HCC 2998 it was 2.39 µM (inactive); with OVCAR-3, > 100 µM (inactive); in the assay with NCI/ADR-RES, 5.7 µM (inactive); in the assay on SNB-19 it was 3.34 µM (inactive). Also, the GI50 with HCT-15 is over 100 µM.

Consider `CC[C@@H](/C=C\CCC1(C[C@H](O)CCC=C(C)C)OCCO1)O[Si](C(C)C)(C(C)C)C(C)C`, for which the GI50 was 29.5 µM (inactive) with SNB-75; 22.6 µM (inactive) in the assay on UACC-62; 29 µM (inactive) with CCRF-CEM; 30.5 µM (inactive) in the assay with BT-549; 16.7 µM (inactive) in the assay on HL-60; 21.8 µM (inactive) in the assay with SK-OV-3. The GI50 was 50.8 µM (inactive) with OVCAR-4; 22 µM (inactive) in the assay on OVCAR-5; 17.3 µM (inactive) with MDA-MB-231; 22.5 µM (inactive) in the assay with UACC-257; 18.3 µM (inactive) in the assay with ACHN; 19.3 µM (inactive) in the assay on MOLT-4. Also, the GI50 was 34.3 µM (inactive) in the assay on HOP-62; 17.3 µM (inactive) with RXF 393; 16.4 µM (inactive) in the assay on HCC 2998; 19 µM (inactive) with OVCAR-3; 22.4 µM (inactive) in the assay on NCI/ADR-RES; 18.9 µM (inactive) in the assay with SNB-19. Further, in the assay with HCT-15, the GI50 was 20.1 µM.

In the case of `CC1OC2/C=C\CC(O)C(C)(C)C3CCC(C)C4(O3)O[B-]35OC(C(=O)OC1C2)C1(OC(CCC1C)C(C)(C)C(O)C/C=C\C1CC(OC(=O)C4O3)C(C)O1)O5` (stereo not given), the GI50 in the assay with SNB-75 is 0.39 µM (active); with UACC-62, 2.01 µM (inactive); in the assay with CCRF-CEM, 0.718 µM (active); with BT-549, 2.54 µM (inactive); in the assay on HL-60 it was 1.06 µM (active); in the assay on SK-OV-3 it was 4.47 µM (inactive). In addition, the GI50 in the assay with OVCAR-4 was 7.76 µM (inactive); in the assay on OVCAR-5, 7.45 µM (inactive); in the assay on MDA-MB-231 it was 1.99 µM (inactive); with UACC-257, 1.77 µM (inactive); in the assay with ACHN, 3.45 µM (inactive); in the assay on MOLT-4 it was 1.01 µM (active). Moreover, the GI50 with HOP-62 was 2.08 µM (inactive); with RXF 393, 1.87 µM (inactive); in the assay on HCC 2998, 1.66 µM (inactive); in the assay on OVCAR-3, 1.89 µM (inactive); in the assay with NCI/ADR-RES, 3.2 µM (inactive); in the assay with SNB-19, 2.39 µM (inactive). In the assay on HCT-15, this compound gave a GI50 of 5.37 µM.

As for `Nc1c2c(nc3ccccc13)-c1ccccc1NCCC2`, the GI50 with SNB-75 was 43.4 µM (inactive); in the assay with UACC-62, 18.3 µM (inactive); in the assay with CCRF-CEM, 26.4 µM (inactive); with BT-549 it was 50.5 µM (inactive); in the assay on HL-60, 18.4 µM (inactive); with SK-OV-3, 64.6 µM (inactive). Moreover, the GI50 in the assay with OVCAR-4 was 47.3 µM (inactive); in the assay on OVCAR-5, 35.6 µM (inactive); in the assay on MDA-MB-231, 19.7 µM (inactive); in the assay on UACC-257, 13.6 µM (inactive); with ACHN, 36.6 µM (inactive); in the assay with MOLT-4, 24.6 µM (inactive). The GI50 is 16.6 µM (inactive) in the assay on HOP-62; 16.1 µM (inactive) in the assay with RXF 393; 13.9 µM (inactive) in the assay on HCC 2998; 78.2 µM (inactive) with OVCAR-3; 68.2 µM (inactive) in the assay with NCI/ADR-RES; 53 µM (inactive) in the assay on SNB-19. The GI50 in the assay with HCT-15 is 35.6 µM.

As for `COc1cc2c(cc1OC)-c1[nH]c3ccc([N+](=O)[O-])cc3c1CC(=O)N2`, the GI50 was 2.43 µM (inactive) with SNB-75; 5.4 µM (inactive) in the assay with UACC-62; 0.975 µM (active) in the assay on CCRF-CEM; 3.15 µM (inactive) with BT-549; 2.94 µM (inactive) with HL-60; 3.15 µM (inactive) with SK-OV-3. Moreover, the GI50 in the assay with OVCAR-4 is 3.19 µM (inactive); in the assay with OVCAR-5 it was 3.78 µM (inactive); in the assay on MDA-MB-231 it was 4.15 µM (inactive); in the assay with UACC-257, 8.49 µM (inactive); in the assay with ACHN it was 2.32 µM (inactive); in the assay on MOLT-4 it was 1.56 µM (inactive). The GI50 with HOP-62 is 3.1 µM (inactive); in the assay on RXF 393 it was 1.43 µM (inactive); with HCC 2998, 1.04 µM (active); in the assay with OVCAR-3, 0.726 µM (active); in the assay on NCI/ADR-RES, > 100 µM (inactive); with SNB-19, 6.84 µM (inactive). This compound had a GI50 in the assay on HCT-15 of 2.11 µM.
